In PubChem BioAssay (NCI) one finds GI50 and TGI data, which are given here for nine compounds.

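A five-concentration, 48-hour dose response in 96-well plates underlies each endpoint, interpolated linearly between surrounding concentrations. GI50 is the concentration that inhibits growth by half. TGI denotes the concentration required for complete inhibition of growth.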

Test systems include 786-0 renal; ACHN renal; EKVX NSCLC; HCT-116 colon; NCI-H522 lung; OVCAR-3 ovarian; RPMI-8226 leukemia; SF-295 CNS; SW-620 colon.
What all share (assay): growth of human tumour cells (NCI), 48 h

On to `CCOC(=O)c1cnn(-c2ccnc3c(C(F)(F)F)cccc23)c1N`, for which the GI50 in the assay with 786-0 renal, in the assay with ACHN renal, in the assay on EKVX NSCLC, in the assay with HCT-116 colon, in the assay with NCI-H522 lung and with OVCAR-3 ovarian was above 100 µM in each case. Besides, the GI50 in the assay on RPMI-8226 leukemia was 98.4 µM; in the assay with SF-295 CNS it was above 100 µM; with SW-620 colon it was above 100 µM. Moreover, the TGI in the assay on 786-0 renal, with ACHN renal, in the assay on EKVX NSCLC, in the assay with HCT-116 colon, in the assay on NCI-H522 lung and in the assay with OVCAR-3 ovarian was above 100 µM each time. Besides, the TGI with RPMI-8226 leukemia, with SF-295 CNS and in the assay with SW-620 colon was above 100 µM each time.
With `COC(=O)[C@]1(C)CCC[C@@]2(C)C1CCC1=C[C@@]3(C(C)C)CC[C@]12OO3` (stereo partly drawn), the TGI was 40.9 µM in the assay with 786-0 renal; above 100 µM in the assay with ACHN renal; above 100 µM in the assay with EKVX NSCLC; 73 µM in the assay with HCT-116 colon; 35.4 µM in the assay on NCI-H522 lung; above 100 µM in the assay on OVCAR-3 ovarian. The TGI with RPMI-8226 leukemia is 47 µM; in the assay with SF-295 CNS it was 64.4 µM; with SW-620 colon, above 100 µM.
Take `CCOC(=O)c1c(C)n(Cc2ccc(Cl)cc2Cl)c2c1cc1oc(=O)c(=O)n3c(Cc4ccccc4)nc2c13`: the GI50 in the assay with 786-0 renal was 5.18 µM; in the assay with ACHN renal it was 3.06 µM; with EKVX NSCLC it was 8.05 µM; with HCT-116 colon it was 2.05 µM; in the assay with NCI-H522 lung, 6.1 µM; in the assay on OVCAR-3 ovarian, 1.91 µM. Moreover, the values for the GI50 in the assay on RPMI-8226 leukemia, in the assay with SF-295 CNS and in the assay with SW-620 colon were 1.71 µM, 2.32 µM and 1.95 µM, respectively. For the same compound, the TGI with 786-0 renal turned out to be 19.2 µM; with ACHN renal, 11.8 µM; with EKVX NSCLC, 20.8 µM; with HCT-116 colon it was 4.87 µM; in the assay with NCI-H522 lung, 25.5 µM; in the assay on OVCAR-3 ovarian, 4.44 µM. Also, the TGI amounted to 3.57 µM in the assay with RPMI-8226 leukemia, 10.9 µM with SF-295 CNS and 4.3 µM in the assay with SW-620 colon.
As for `CCc1c2c(nc3cccc(N)c13)-c1cc3c(c(=O)n1C2)COC(=O)[C@]3(O)CC`, the GI50 in the assay on 786-0 renal was below 0.001 µM; in the assay on EKVX NSCLC, 0.187 µM; in the assay with NCI-H522 lung, 0.00459 µM; in the assay on OVCAR-3 ovarian it was 0.237 µM; in the assay with RPMI-8226 leukemia it was 0.0932 µM; in the assay on SF-295 CNS, 0.00441 µM. The GI50 in the assay on SW-620 colon was 0.011 µM. The TGI in the assay on 786-0 renal is 1.62 µM; in the assay with EKVX NSCLC it was above 100 µM; with RPMI-8226 leukemia it was 0.56 µM; in the assay on SW-620 colon, above 100 µM.
For `CCCCC[C@H]1C/C=C2/C(=O)C(Cl)=C[C@@H]2C/C=C\CCCC(=O)O[C@@H](CCCCC)C/C=C2/C(=O)C(Cl)=C[C@@H]2C/C=C\CCCC(=O)O1`, the GI50 was 0.28 µM with 786-0 renal; 0.623 µM in the assay on ACHN renal; 0.543 µM with EKVX NSCLC; 0.186 µM in the assay with HCT-116 colon; 0.352 µM in the assay on NCI-H522 lung; 0.268 µM in the assay on OVCAR-3 ovarian. Also, the figures for the GI50 with RPMI-8226 leukemia, in the assay with SF-295 CNS and in the assay with SW-620 colon were 0.188 µM, 0.362 µM and 0.512 µM, respectively. Further, the TGI in the assay on 786-0 renal amounted to 0.622 µM; with ACHN renal it was 2.15 µM; in the assay with EKVX NSCLC, 1.76 µM; in the assay on HCT-116 colon, 0.523 µM; in the assay on NCI-H522 lung it was 0.78 µM; in the assay on OVCAR-3 ovarian, 0.555 µM. Also, the TGI is 0.973 µM in the assay with RPMI-8226 leukemia, 0.861 µM in the assay on SF-295 CNS and 1.77 µM in the assay on SW-620 colon.
In the case of `CC1=CC(=O)C(C(C)=Nc2ccccc2Cl)C(=O)O1` (stereo not drawn), the GI50 with 786-0 renal, with ACHN renal, in the assay with EKVX NSCLC, in the assay with HCT-116 colon, in the assay with NCI-H522 lung and in the assay with OVCAR-3 ovarian was above 100 µM each time. The GI50 in the assay with RPMI-8226 leukemia, in the assay with SF-295 CNS and in the assay with SW-620 colon was above 100 µM throughout. Moreover, the TGI in the assay with 786-0 renal, with ACHN renal, in the assay on EKVX NSCLC, in the assay on HCT-116 colon, with NCI-H522 lung and with OVCAR-3 ovarian was above 100 µM in each case. Besides, the TGI in the assay on RPMI-8226 leukemia, with SF-295 CNS and in the assay with SW-620 colon was above 100 µM throughout.
`Cc1cn2c(/C=N/N/C(N)=N\N)c(-c3ccc(Cl)c([N+](=O)[O-])c3)nc2s1`: the GI50 is 0.859 µM in the assay on 786-0 renal; 0.928 µM in the assay on ACHN renal; 3.99 µM in the assay with EKVX NSCLC; 4.58 µM in the assay with NCI-H522 lung; 0.865 µM in the assay on OVCAR-3 ovarian; 4.54 µM in the assay on RPMI-8226 leukemia. The GI50 in the assay on SF-295 CNS is 0.891 µM. Moreover, the TGI was 1.73 µM in the assay on 786-0 renal; 1.63 µM with ACHN renal; 15.6 µM in the assay with EKVX NSCLC; 32.1 µM in the assay on NCI-H522 lung; 1.75 µM in the assay with OVCAR-3 ovarian; above 50 µM in the assay with RPMI-8226 leukemia. In the assay on SF-295 CNS, this compound had a TGI of 1.8 µM.
For the compound `Cn1cc(-c2ccc(CNc3cc(-c4cnc5cc(OCCCN6CCCC6)ccn45)ncn3)cc2)cn1`, the GI50 is 1.49 µM in the assay with 786-0 renal; 1.78 µM in the assay with ACHN renal; 3.01 µM with EKVX NSCLC; 1.57 µM with HCT-116 colon; 18.6 µM with NCI-H522 lung; 1.9 µM in the assay on OVCAR-3 ovarian. Besides, the GI50 was 2.15 µM in the assay with RPMI-8226 leukemia and 1.61 µM with SW-620 colon. Moreover, the TGI was 2.91 µM in the assay on 786-0 renal; 3.22 µM with ACHN renal; 9.59 µM with EKVX NSCLC; 2.98 µM in the assay with HCT-116 colon; 37.8 µM with NCI-H522 lung; 4.13 µM with OVCAR-3 ovarian. In addition, the TGI was found to be 5.55 µM in the assay on RPMI-8226 leukemia and 3.17 µM in the assay on SW-620 colon.
Turning to `Oc1cc(Cl)ccc1Oc1ccc(Cl)cc1Cl`, the GI50 in the assay with 786-0 renal is 2.47 µM; in the assay on ACHN renal, 3.47 µM; with EKVX NSCLC it was 3.04 µM; in the assay on HCT-116 colon, 2.55 µM; with NCI-H522 lung, 2.36 µM; in the assay with OVCAR-3 ovarian, 5.21 µM. In addition, the GI50 with RPMI-8226 leukemia is 2.02 µM; in the assay with SW-620 colon it was 3.51 µM. Further, the TGI in the assay on 786-0 renal was found to be 6.61 µM; in the assay on ACHN renal it was 11.3 µM; in the assay on EKVX NSCLC it was 11.9 µM; in the assay with HCT-116 colon, 6.43 µM; in the assay with NCI-H522 lung it was 6.05 µM; in the assay on OVCAR-3 ovarian, 17.2 µM. The TGI in the assay with RPMI-8226 leukemia is 5.7 µM; with SW-620 colon it was 12.7 µM.
